logP data for 24 compounds are collected here from the SangsterLogP compilation.

This data set can be described thus: method code SF-AS, from DOI: 10.1021/jm00294a001, PMID: 5116225.

Usually logP stands for a log measure of how a compound divides between an organic and an aqueous phase. A lower logP goes with lower lipophilicity. Turning to `C=C1C(=O)O[C@@H]2[C@H]1CC[C@H](C)[C@]1(O)CCC(=O)[C@@]21C`, the logP stood at 0.83.
The result for `C=CC12COC(=O)C(=C)C1C1OC(=O)C(=C)C1C(OC(C)=O)C2` (centres undefined) reads 0.79; that for `C=C1C(=O)OC2C1C(OC(=O)C(C)=CC)CC(O)(CCl)C1C(OC(C)=O)C=C(C)C21O` (centres undefined), 1.42.
In the case of `C=C1C(=O)O[C@@H]2C[C@@H](C)[C@@H]3C=CC(=O)[C@@]3(C)[C@@H](O)[C@H]12` it was 0.87.
In turn, `C=C1C(=O)O[C@H]2CC3=C[C@@H](C[C@@]4(C)O[C@@H]4[C@@H](O)[C@H]12)OC3=O` registered a logP of -0.64.
`C=C1C(=O)OC2CC(C)=CCC(OC(C)=O)C(C)=CC(OC(C)=O)C12` (centres undefined): the logP turned out to be 1.14.
The result for `C=CC12COC(=O)C(=C)C1C(O)C1C(=C)C(=O)OC1C2` (centres undefined) reads -0.14; that for `C=C1C(=O)O[C@@H]2/C=C(/C)C[C@H](O)/C=C(/C)CC[C@@H]12`, 1.23; that for `C=C1C(=O)O[C@H]2[C@H]1[C@@H](OC(=O)C=C(C)C)CC1=C[C@@H](C[C@@]3(C)O[C@H]23)OC1=O`, 1.05.
In the case of `C=CC12COC(=O)C(=C)C1C(OC(C)=O)C1C(=C)C(=O)OC1C2` (centres undefined) it was 0.25.
The result for `C=C1C(=O)OC2C=C(C)C(OC(C)=O)CC(O)C(C)=CC(OC(=O)C(C)=CC)C12` (centres undefined) reads 1.16; that for `C=C1C(=O)O[C@@H]2[C@H]1CC[C@H](C)[C@@H]1C[C@@H](O)C(=O)[C@@]21C`, 0.66.
Compound `C=C1C(=O)OC2C1CCC(C)C1(O)C=CC(=O)C21C` (centres undefined) came in with a logP of 0.77.
As to `C=C1C(=O)OC2C1CCC(C)C1C=CC(=O)C12C` (centres undefined), the logP came out at 1.03.
In the case of `C=C1C(=O)OC2C=C(C)C(O)CC=C(C)CCC12` (centres undefined) it was 1.4; in that of `C=C[C@@]12COC(=O)C(=C)[C@@H]1[C@H]1OC(=O)C(=C)[C@@H]1[C@@H](O)C2`, 0.31; in that of `C=C1C(=O)OC2C1C(OC(=O)C(C)=CC)CC(=C)C1C(O)C3OC3(C)C21O` (centres undefined), 1.69.
For the compound `C=C1C(=O)O[C@H]2[C@H]1[C@H](OC(=O)/C(C)=C\C)C[C@]1(CO1)[C@@H]1[C@H](OC(C)=O)C=C(C)[C@]21O`, the logP was found to be 0.76.
In the case of `C=C[C@@]12COC(=O)C(=C)[C@@H]1[C@H]1OC(=O)C(=C)[C@@H]1[C@@H](OC(=O)C(=C)C)C2` it was 1.56.
As for `C=C(C)C(=O)O[C@H]1CC2=C[C@@H](C[C@@]3(C)O[C@@H]3[C@H]3OC(=O)C(=C)[C@@H]31)OC2=O`, the logP was 0.69.
The result for `C=C1C(=O)O[C@H]2C[C@@H](C)[C@@H]3C=CC(=O)[C@@]3(C)C[C@H]12` reads 1.17; that for `C=C1C(=O)OC2C=C(C)C3(O)C=CC(C)(CC(OC(=O)C(=CC)COC(C)=O)C12)O3` (centres undefined), 1.19.
In the case of `C=C1C(=O)OC2C=C(C)C3C(OC(C)=O)CC(O)C3CC12` (centres undefined) it was 1.09; in that of `C=C1C(=O)OC2C1C(O)CC(C)C1CCC(=O)C12C` (centres undefined), 0.23.
